From ChEMBL document CHEMBL5724696, “Autophagy assay results for EUbOPEN Chemogenomics Library” (2024) come the findings set out here.

The subject of assay [1] is U2OS. The experiment in a line: (§1) Here: values are normalized to the positive (DMSO; basel flux = defined as 100% suppression) and negative (250nM Torin1; mTOR inhibitor; maximal inducer of autophagy defined as 0% suppression) control compounds and represented as % of ER-phagy suppression. […] The impact of autophagy induction on cells is complex and depends on the affected target. […] Of note, treatment concentrations may be sub-optimal for specific compounds, leading to false negative annotations. The note with it: Compound Concentration 1 uM, Culturing Media DMEM, 1 % Penicillin/Streptomycin, 10% Fetal bovin serum Add-On: blasticidin, Screening Media Control DMEM, 10% Fetal bovin serum Add-On: 1 µg/ml Doxycyclin, Screening Media Samples DMEM, 10% Fetal bovin serum Add-On: 1 µg/ml Doxycyclin 250nM Torin1. Format: functional, Homo sapiens.

For assay [2], the system named is U2OS. The description is as §1. The note with it: Compound Concentration 1 uM, Culturing Media DMEM, 1 % Penicillin/Streptomycin, 10% Fetal bovin serum Add-On: blasticidin, Screening Media Control DMEM, 10% Fetal bovin serum Add-On: 1 µg/ml Doxycyclin, Screening Media Samples DMEM, 10% Fetal bovin serum Add-On: 1 µg/ml Doxycyclin 250nM Torin1. Format: functional, Homo sapiens. This is another data set of the same source.

As to `Cc1cc(NC(=O)c2cccc(S(F)(F)(F)(F)F)c2)cc(-n2ccn3nc(-c4cccnc4)cc23)c1` [BAY-309], the ER-phagy suppression in the assay with U2OS [1] (Timepoint 12 hours) is recorded as 7.299%; in the assay with U2OS [1] (Timepoint 24 hours), 1.781%; in the assay with U2OS [1] (Timepoint 36 hours), 3.502%; in the assay on U2OS [1] (Timepoint 60 hours), -2.656%; in the assay on U2OS [2] (Timepoint 12 hours), 7.105%; with U2OS [2] (Timepoint 24 hours), -8.178%. The results for the ER-phagy suppression in the assay on U2OS [2] (Timepoint 36 hours) and in the assay with U2OS [2] (Timepoint 54 hours) were -9.412% and -2.397%, respectively.
Regarding `C[C@@H]1CN(c2cc(-c3nn(C)c4ccc(OC5(C)CC5)cc34)ncn2)C[C@H](C)O1` [MLi-2-NC], the ER-phagy suppression in the assay on U2OS [1] (Timepoint 12 hours) was 30.6608%; in the assay with U2OS [1] (Timepoint 24 hours), 32.7197%; with U2OS [1] (Timepoint 36 hours) it was 14.6999%; in the assay with U2OS [1] (Timepoint 60 hours), 6.822%; in the assay on U2OS [2] (Timepoint 12 hours), 6.526%; in the assay with U2OS [2] (Timepoint 24 hours), -15.2571%. The ER-phagy suppression in the assay with U2OS [2] (Timepoint 36 hours) is recorded as -21.814%; with U2OS [2] (Timepoint 54 hours) it was -27.1974%.
Consider `Cc1c(NC(=O)c2ccc(C(C)(C)C)cc2)cccc1-c1cn(C)c(=O)c(Nc2ccc(C(=O)N3CCOCC3)cc2)n1`, for which the ER-phagy suppression with U2OS [1] (Timepoint 12 hours) is reported as -0.6222%; with U2OS [1] (Timepoint 24 hours), -11.9993%; with U2OS [1] (Timepoint 36 hours) it was -14.8569%; with U2OS [1] (Timepoint 60 hours), -20.2284%; in the assay on U2OS [2] (Timepoint 12 hours), -19.8949%; with U2OS [2] (Timepoint 24 hours), -28.4876%. Besides, the ER-phagy suppression in the assay with U2OS [2] (Timepoint 36 hours) was -32.1203%; in the assay with U2OS [2] (Timepoint 54 hours), -24.8408%.
`NC(=O)c1ccc2[nH]c(-c3ccc(Oc4ccc(Cl)cc4)cc3)nc2c1`: the ER-phagy suppression in the assay on U2OS [1] (Timepoint 12 hours) is recorded as -30.239%; in the assay with U2OS [1] (Timepoint 24 hours) it was -28.4978%; in the assay on U2OS [1] (Timepoint 36 hours) it was -29.0961%; with U2OS [1] (Timepoint 60 hours), -19.7873%; in the assay with U2OS [2] (Timepoint 12 hours) it was -2.841%; with U2OS [2] (Timepoint 24 hours) it was -13.7146%. The ER-phagy suppression is given as -23.7031% with U2OS [2] (Timepoint 36 hours) and -21.3336% in the assay with U2OS [2] (Timepoint 54 hours).
As for `CN1CCC(COc2cnc(-c3cccc(Cn4nc(-c5cccc(C#N)c5)ccc4=O)c3)nc2)CC1` [TEPOTINIB], the ER-phagy suppression with U2OS [1] (Timepoint 12 hours) is recorded as -9.035%; in the assay with U2OS [1] (Timepoint 24 hours), 9.179%; in the assay on U2OS [1] (Timepoint 36 hours) it was 17.9604%; in the assay on U2OS [1] (Timepoint 60 hours), 23.3369%; with U2OS [2] (Timepoint 12 hours), 4.664%; in the assay with U2OS [2] (Timepoint 24 hours) it was -2.8541%. Besides, the figures for the ER-phagy suppression with U2OS [2] (Timepoint 36 hours) and with U2OS [2] (Timepoint 54 hours) were -6.061% and -17.192%, respectively.
Turning to `COc1cc(Nc2ccnc3ccc(Br)cc23)cc(OC)c1OC`, the ER-phagy suppression with U2OS [1] (Timepoint 12 hours) turned out to be 44.6642%; with U2OS [1] (Timepoint 24 hours), 57.8089%; in the assay with U2OS [1] (Timepoint 36 hours), 50.5911%; in the assay on U2OS [1] (Timepoint 60 hours) it was 41.5059%; with U2OS [2] (Timepoint 12 hours), 45.26%; in the assay on U2OS [2] (Timepoint 24 hours), 43.6651%. The ER-phagy suppression came to 45.8783% in the assay on U2OS [2] (Timepoint 36 hours) and 55.0501% with U2OS [2] (Timepoint 54 hours).
In the case of `CN([C@@H](Cc1ccc(OS(=O)(=O)c2cccc3cnccc23)cc1)C(=O)N1CCN(c2ccccc2)CC1)S(=O)(=O)c1cccc2cnccc12`, the ER-phagy suppression was 11.3745% in the assay with U2OS [1] (Timepoint 12 hours); -2.8225% in the assay with U2OS [1] (Timepoint 24 hours); -4.115% with U2OS [1] (Timepoint 36 hours); -4.142% in the assay with U2OS [1] (Timepoint 60 hours); -1.9452% with U2OS [2] (Timepoint 12 hours); -10.891% in the assay with U2OS [2] (Timepoint 24 hours). For the same compound, the ER-phagy suppression is reported as -4.8506% in the assay on U2OS [2] (Timepoint 36 hours) and -2.408% in the assay on U2OS [2] (Timepoint 54 hours).
On to `C[C@@H]1COCCN1c1cc(C2([S@](C)(=N)=O)CC2)nc(-c2cc[nH]c3nccc2-3)n1` [CERALASERTIB], for which the ER-phagy suppression in the assay on U2OS [1] (Timepoint 12 hours) is reported as -20.381%; in the assay with U2OS [1] (Timepoint 24 hours), -14.6462%; in the assay on U2OS [1] (Timepoint 36 hours), -13.688%; with U2OS [1] (Timepoint 60 hours), -10.6655%; in the assay with U2OS [2] (Timepoint 12 hours) it was 5.203%; with U2OS [2] (Timepoint 24 hours) it was -10.6428%. Besides, the figures for the ER-phagy suppression with U2OS [2] (Timepoint 36 hours) and in the assay with U2OS [2] (Timepoint 54 hours) were -11.7869% and -16.7098%, respectively.
`CN(C)C(=O)N1CC[C@H](NC2=Nc3cc(F)ccc3N(CC(F)F)c3ccc(Cl)cc32)C1`: the ER-phagy suppression in the assay with U2OS [1] (Timepoint 12 hours) is recorded as -14.7963%; in the assay with U2OS [1] (Timepoint 24 hours), -22.2791%; with U2OS [1] (Timepoint 36 hours), -19.1413%; in the assay on U2OS [1] (Timepoint 60 hours), -31.4062%; in the assay with U2OS [2] (Timepoint 12 hours) it was -18.0128%; in the assay with U2OS [2] (Timepoint 24 hours) it was -30.8641%. In addition, the values for the ER-phagy suppression in the assay with U2OS [2] (Timepoint 36 hours) and in the assay on U2OS [2] (Timepoint 54 hours) were -36.8246% and -25.6155%, respectively.
Regarding `Cc1ccc(-c2cnc([C@@]3(O)CC[C@H](C(=O)O)C(C)(C)C3)s2)cc1Nc1cccc(C(F)(F)F)n1` [MRL-SYKi-NC], the ER-phagy suppression with U2OS [1] (Timepoint 12 hours) is on record as -10.2062%; in the assay on U2OS [1] (Timepoint 24 hours), -4.2474%; with U2OS [1] (Timepoint 36 hours), -12.4056%; in the assay on U2OS [1] (Timepoint 60 hours), -6.238%; in the assay with U2OS [2] (Timepoint 12 hours), -2.6288%; in the assay with U2OS [2] (Timepoint 24 hours), -19.3711%. The ER-phagy suppression in the assay with U2OS [2] (Timepoint 36 hours) is -27.7592%; with U2OS [2] (Timepoint 54 hours) it was -26.2542%.
For `CC(=O)NCC(=O)N1[C@@H]2CC[C@H]1c1ccc(Nc3ncc(C(F)(F)F)c(NC4CCC4)n3)cc12` [PF-03814735], the ER-phagy suppression is 2.1297% in the assay with U2OS [1] (Timepoint 12 hours); 18.4214% in the assay on U2OS [1] (Timepoint 24 hours); 21.3987% with U2OS [1] (Timepoint 36 hours); 29.5902% in the assay with U2OS [1] (Timepoint 60 hours); -4.576% with U2OS [2] (Timepoint 12 hours); -22.3849% with U2OS [2] (Timepoint 24 hours). The values for the ER-phagy suppression with U2OS [2] (Timepoint 36 hours) and with U2OS [2] (Timepoint 54 hours) were -35.8376% and -44.2787%, respectively.
With `CC1=C(C#N)C(c2ccc3[nH]nc(C)c3c2)C(C#N)=C(C)N1` [BAY-474], the ER-phagy suppression in the assay on U2OS [1] (Timepoint 12 hours) is -4.1838%; in the assay with U2OS [1] (Timepoint 24 hours), 7.362%; in the assay on U2OS [1] (Timepoint 36 hours), 15.2848%; in the assay with U2OS [1] (Timepoint 60 hours), 16.6513%; with U2OS [2] (Timepoint 12 hours) it was -13.4419%; with U2OS [2] (Timepoint 24 hours), -18.7669%. Further, the ER-phagy suppression in the assay with U2OS [2] (Timepoint 36 hours) is -19.5327%; with U2OS [2] (Timepoint 54 hours), -10.8689%.
Consider `O=c1cc(N2CCOCC2)oc2c1ccc1ccccc12`, for which the ER-phagy suppression is recorded as -2.095% in the assay on U2OS [1] (Timepoint 12 hours); 14.4083% with U2OS [1] (Timepoint 24 hours); 8.467% with U2OS [1] (Timepoint 36 hours); 13.3057% with U2OS [1] (Timepoint 60 hours); 4.944% in the assay on U2OS [2] (Timepoint 12 hours); -13.6038% with U2OS [2] (Timepoint 24 hours). In addition, the ER-phagy suppression in the assay with U2OS [2] (Timepoint 36 hours) was -17.5746%; with U2OS [2] (Timepoint 54 hours), -11.078%.
Take `O=C(NCc1cccc(O)c1)Nc1nc(-c2ccncc2)cs1`: the ER-phagy suppression in the assay with U2OS [1] (Timepoint 12 hours) was 38.3546%; with U2OS [1] (Timepoint 24 hours) it was 42.4931%; in the assay on U2OS [1] (Timepoint 36 hours) it was 43.3897%; with U2OS [1] (Timepoint 60 hours), 45.9293%; in the assay with U2OS [2] (Timepoint 12 hours), -63.2417%; with U2OS [2] (Timepoint 24 hours), -37.1145%. Also, the figures for the ER-phagy suppression in the assay with U2OS [2] (Timepoint 36 hours) and in the assay on U2OS [2] (Timepoint 54 hours) were 6.149% and 46.7933%, respectively.
Turning to `O=C(O)CSc1ncnc2cc(-c3cc4ccccc4s3)sc12`, the ER-phagy suppression in the assay on U2OS [1] (Timepoint 12 hours) was -19.6328%; with U2OS [1] (Timepoint 24 hours), -17.1874%; in the assay with U2OS [1] (Timepoint 36 hours) it was -14.8161%; with U2OS [1] (Timepoint 60 hours), -4.092%; in the assay on U2OS [2] (Timepoint 12 hours), 0.5897%; in the assay on U2OS [2] (Timepoint 24 hours), -12.2442%. The ER-phagy suppression in the assay with U2OS [2] (Timepoint 36 hours) is -19.5389%; in the assay on U2OS [2] (Timepoint 54 hours) it was -8.371%.
Turning to `CNC(=O)c1ccccc1Nc1cc(Nc2ccc(N3CCOCC3)cc2OC)ncc1C(F)(F)F` [VS-4718], the ER-phagy suppression is 7.822% with U2OS [1] (Timepoint 12 hours); -10.4532% in the assay with U2OS [1] (Timepoint 24 hours); -8.464% with U2OS [1] (Timepoint 36 hours); -16.508% in the assay with U2OS [1] (Timepoint 60 hours); 14.2845% in the assay on U2OS [2] (Timepoint 12 hours); -7.017% with U2OS [2] (Timepoint 24 hours). Moreover, the ER-phagy suppression in the assay with U2OS [2] (Timepoint 36 hours) is -5.515%; in the assay on U2OS [2] (Timepoint 54 hours), 11.4938%.
On to `Cc1ccc(-c2ccc3c(ccc4sc5c(c43)NC[C@@H](C)NC5=O)n2)cn1`, for which the ER-phagy suppression is given as 5.336% in the assay with U2OS [1] (Timepoint 12 hours); 5.52% with U2OS [1] (Timepoint 24 hours); 7.693% in the assay on U2OS [1] (Timepoint 36 hours); 5.525% in the assay on U2OS [1] (Timepoint 60 hours); -17.2516% in the assay on U2OS [2] (Timepoint 12 hours); -0.875% in the assay with U2OS [2] (Timepoint 24 hours). The results for the ER-phagy suppression in the assay on U2OS [2] (Timepoint 36 hours) and in the assay with U2OS [2] (Timepoint 54 hours) were 6.096% and 19.149%, respectively.
